Reference: patent US8722608B2, “Process of bleaching” (Conopco, Inc., priority 2005, dated 2014)

What was measured:
[1] = Solubility in water at 20° C.; format: physicochemical
[2] = Bleaching of softwood D0 pulp with H2O2 and catalyst, whiteness; conditions: 2.5 microM catalyst, 10 kg/t H2O2, 8 kg/t NaOH, 50° C., 1 h, 5% consistency; SD 0.3 points
Method: Softwood chemical mill pulp obtained after the D0 bleaching stage (abbreviated as softwood D0 pulp) was used. The bleaching experiments were conducted on small scale in 100 ml vessels using the pulps at 5% consistency (i.e., 5% oven dry wood pulp; 95% aqueous bleaching liquor). The mixture contained 2.5 microM of the catalyst (as chloride, sulfate, acetate and PF6 salts—see Table), 1 kg/t of MgSO4, 8 kg/t of NaOH and 10 kg/t of H2O2 (kg/t: kg chemicals per ton oven dry pulp). The mixture was manually stirred to ensure good distribution of the bleaching chemicals. Then the vessel was placed in a water bath and stirred regularly at 50° C. for 1 h. All experiments were carried out at least 6 times. As a reference the experiment was conducted without catalyst. The dosages and exact reaction conditions are given in the sections below. After the allocated bleaching times the pulp batches were removed from the vessels, filtered using a Buchner funnel, and washed with 100 ml of water. From the resultant samples of bleached pulp 4×4 cm discs were made having a flat surface on one side. The softwood D0 pulp samples were dried using a L&W Rapid Dryer (Lorentzen and Wetter) at 90° C. for 20 minutes. Whiteness of the bleached pulps was determined using L, a*, b* values as defined by CIE (Commission Internationale de l'Eclairage) of the dried pad was measured using a Minolta spectrophotometer.

[3] = Stability of aqueous catalyst salt solutions (UV/Vis of 1000× diluted solutions); format: physicochemical; conditions: 2 weeks; for precipitate formation: pH 2 to 5, 37° C.
Method: Stability of aqueous solutions of chloride, sulphate and acetate salts are provided. Solutions of the bleach catalyst with chloride, sulphate and acetate anion were brought to pH 2, 3, 4 and 5 by hydrochloric acid, sulphuric acid and acetic acid respectively. For the acetate this could only give pH 5. For the lower pH values sulphuric acid was used in the case of acetate. The solutions were kept at 37° C. and after 2 weeks the stability was monitored from the absorptions in the UV/Vis spectra of 1000× diluted solutions.

| SMILES | solubility in water [1] | Whiteness [2] | % (UV/Vis) remaining ([3]; pH 2, 37° C.) [%] | precipitate formation [3] | % (UV/Vis) remaining ([3]; pH 3, 37° C.) [%] | % (UV/Vis) remaining ([3]; pH 4, 37° C.) [%] | % (UV/Vis) remaining ([3]; pH 5, 37° C.) [%] | water solubility [1] [g per liter] |
| --- | --- | --- | --- | --- | --- | --- | --- | --- |
| CC(=O)[O-].CC(=O)[O-].CN1CCN(C)CCN(C)CC1.CN1CCN(C)CCN(C)CC1.[Mn+4].[Mn+4].[O-2].[O-2].[O-2] [[Mn2O3(Me3—TACN)2]•(OAc)2, [Mn2O3(Me3-TACN)2].(OAc)2] | more than 70 gram/Liter | 84.0 | 87 | (No precipitate is formed) | 91 | 93 | 95 | – |
| CN1CCN(C)CCN(C)CC1.CN1CCN(C)CCN(C)CC1.F[P-](F)(F)(F)(F)F.F[P-](F)(F)(F)(F)F.[Mn+4].[Mn+4].[O-2].[O-2].[O-2] [[Mn2O3(Me3—TACN)2]•(PF6)2, [Mn2O3(Me3-TACN)2].(PF6)2] | 1.08 % (w/w) | 84.4 | – | – | – | – | – | 10.8 |
| CN1CCN(C)CCN(C)CC1.CN1CCN(C)CCN(C)CC1.[Cl-].[Cl-].[Mn+4].[Mn+4].[O-2].[O-2].[O-2] [[Mn2O3(Me3—TACN)2]•Cl2, [Mn2O3(Me3-TACN)2].(Cl)2] | – | 84.3 | 100 | (Precipitate is formed at all pH's) | 100 | 97 | 94 | – |
| CN1CCN(C)CCN(C)CC1.CN1CCN(C)CCN(C)CC1.O=S(=O)([O-])[O-].[Mn+4].[Mn+4].[O-2].[O-2].[O-2] [[Mn2O3(Me3—TACN)2]•SO4, [Mn2O3(Me3-TACN)2].SO4] | – | 84.1 | 78 | (Precipitate only at pH = 5) | 96 | 94 | 98 | – |
